The source of these data is article PMC9604483, “Crystal Structure of CYP3A4 Complexed with Fluorol Identifies the Substrate Access Channel as a High-Affinity Ligand Binding Site” (International Journal of Molecular Sciences, 2022).

In general, Kd refers to the constant that tells how readily two partners part at equilibrium. By Hill coefficient is commonly meant the slope factor of the fitted curve.

The target of data set [1] is T1, T224A CYP3A4 (Homo sapiens, UniProt P08684, T224A).
T1 construct: made in house
T1 sequence (P08684 with tags, fused parts or gaps T224A): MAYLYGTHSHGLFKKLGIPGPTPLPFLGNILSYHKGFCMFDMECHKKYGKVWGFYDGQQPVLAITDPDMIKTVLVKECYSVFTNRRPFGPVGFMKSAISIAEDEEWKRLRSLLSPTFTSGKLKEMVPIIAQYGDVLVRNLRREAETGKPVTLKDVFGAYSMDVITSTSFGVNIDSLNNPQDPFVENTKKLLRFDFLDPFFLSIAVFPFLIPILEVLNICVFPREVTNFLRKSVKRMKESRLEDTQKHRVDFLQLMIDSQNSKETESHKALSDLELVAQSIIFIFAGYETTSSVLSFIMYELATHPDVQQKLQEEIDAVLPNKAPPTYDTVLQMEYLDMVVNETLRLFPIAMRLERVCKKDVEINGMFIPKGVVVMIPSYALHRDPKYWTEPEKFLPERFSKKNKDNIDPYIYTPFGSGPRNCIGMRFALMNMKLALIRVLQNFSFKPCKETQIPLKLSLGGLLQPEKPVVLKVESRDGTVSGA
The data set can be described thus: Spectral (absorbance) equilibrium titrations of fluorol with CYP3A4. In kind it is binding. How it is done:
(§1) Because fluorol strongly absorbs in the Soret region (Figure 3A), we conducted reverse rather than direct titrations by adding small amounts of CYP3A4 to the experimental cuvette with 3 μM fluorol solution and to a buffer-containing reference cuvette. Based on the difference absorbance spectra, two spectral phases were distinguished. During the first phase, when [CYP3A4] < 0.5 μM and [fluorol]:[CYP3A4] […], spectral perturbations were detected only in the Soret band (red spectra in Figure 3B,C). The lack of changes in the 380–390 nm region implies that the heme remained in a low-spin state. At [CYP3A4] > 0.5, a decrease in the Soret absorption was accompanied by the appearance of a 385 nm peak, indicating a low-to-high spin transition in the heme. For WT CYP3A4, the first spectral phase was more pronounced, with a ~3-fold larger decrease in the Soret band, whereas the 385 nm peak formed during the second phase was ~20% higher compared to that in the T224A mutant. The difference in the total absorbance change is better seen in Figure 3D, where titration plots for WT and T224A CYP3A4 are compared. The best fittings to the binding isotherms were obtained with a two-binding-site model.
(§2) Spectral Titrations—Equilibrium ligand binding to CYP3A4 was monitored using a Cary 300 spectrophotometer at 23 °C in 50 mM phosphate, pH 7.4, containing 0.6 mg/mL β-cyclodextrin (Santa Cruz Biotechnology, Dallas, TX, USA), using a 10 mm light path cuvette. Ten millimolar stock of fluorol (2-butyl-6-(butylamino)-1H-benzo[de]isoquinoline-1,3(2H)-dione; Exciton, Dayton, OH, USA) dissolved in methanol (ε440 nm = 14.0 mM^−1·cm^−1) was diluted with DMSO to prepare 1–3 mM working solutions. During spectral titrations, small aliquots of WT or T224A CYP3A4 were added to the experimental cuvette with a 3 μM fluorol solution (made from 1 mM stock in DMSO) and to the reference cuvette that contained buffer and the same amount of solvent. Difference absorbance spectra were recorded 5–10 min after fluorol addition, when no further spectral perturbations could be detected. The observed absorbance changes (peak-to-trough difference) were plotted vs. […] and fitted using a nonlinear regression analysis to derive dissociation constants.

Another data set deals with T2, WT CYP3A4 (Homo sapiens, UniProt P08684).
T2 construct: made in house
T2 sequence (P08684 with tags, fused parts or gaps): as the sequence (P08684 with tags, fused parts or gaps T224A) above, with A204T counted along it
Described as above. In kind it is binding. How it is done:
as §1, §2

Data set [2] addresses T1, T224A CYP3A4. Description: Fluorol oxidation in a reconstituted system with cytochrome P450 reductase. In kind it is in vitro ADME. The note with it: 25 μM fluorol, 1 μM CYP3A4, 2 μM CPR, 37 °C; substrate/product ratio. How it is done: This possibility was tested in a reconstituted system with cytochrome P450 reductase. […] The mass shift of +16 Da implies that fluorol undergoes a single-site oxidation.
Fluorol metabolism—Oxidation of fluorol by WT and T224A CYP3A4 was assessed in a reconstituted system with cytochrome P450 reductase. Reaction was carried out at 37 °C in 100 mM potassium phosphate, pH 7.4, containing catalase and superoxide dismutase (2 units/mL each), 1 μM WT or T224A CYP3A4, 2 μM CPR, NADPH regenerating system (10 mM glucose, 0.2 mM NADP^+, and 2 units/mL glucose-6-phosphate dehydrogenase), and 25 μM fluorol. After addition of 80 μM NADPH, samples were gently shaken, and 0.5 mL aliquots were taken in 15 min intervals. The reaction was stopped by adding 2 mL of dichloromethane. After 30 s vortexing, 1 mL of 0.3 M NaCl was added, and the sample was vortexed again and centrifuged for 10 min at 3000× g and 4 °C. The bottom organic phase (1 mL) was transferred to a glass vial, evaporated under the stream of nitrogen, and dissolved in 150 μL of methanol. Samples were analyzed by electrospray ionization mass spectroscopy using a Micromass LCP Premier mass spectrometer (Waters, Milford, MA, USA) in the negative ion mode, with 0.2 mL/min methanol flow. Chromatogram analysis and integrations were performed with Waters MassLynx MS software.

Data set [3] is described as follows: Fluorol solubility/aggregation monitored by emission changes. The following applies: 50 mM potassium phosphate, pH 7.4; with or without 0.6 mg/mL β-cyclodextrin. Format: physicochemical. The method, then:
In our working solution (50 mM potassium phosphate, pH 7.4), dependence of emission intensity on fluorol concentration was linear only within the 0.1–4 μM range (Figure S1A). Addition of 0.6 mg/mL β-cyclodextrin, reported to improve solubility of fluorol, made no difference. For consistency, β-cyclodextrin was included in the assay buffers, while the working concentration of fluorol was limited to 3 μM to avoid/minimize artefacts associated with fluorol aggregation.

On the set-up of data set [4]: method as in PMID 18831537. The following applies: cited from earlier work.
Another data set deals with CYP3A4 (Homo sapiens, UniProt P08684). On the set-up: method as in PMID 22194603. The following applies: prior study, cited from earlier work; for Kd: up to 60 μM fluorol.
Chain of CYP3A4 (P08684 whole entry): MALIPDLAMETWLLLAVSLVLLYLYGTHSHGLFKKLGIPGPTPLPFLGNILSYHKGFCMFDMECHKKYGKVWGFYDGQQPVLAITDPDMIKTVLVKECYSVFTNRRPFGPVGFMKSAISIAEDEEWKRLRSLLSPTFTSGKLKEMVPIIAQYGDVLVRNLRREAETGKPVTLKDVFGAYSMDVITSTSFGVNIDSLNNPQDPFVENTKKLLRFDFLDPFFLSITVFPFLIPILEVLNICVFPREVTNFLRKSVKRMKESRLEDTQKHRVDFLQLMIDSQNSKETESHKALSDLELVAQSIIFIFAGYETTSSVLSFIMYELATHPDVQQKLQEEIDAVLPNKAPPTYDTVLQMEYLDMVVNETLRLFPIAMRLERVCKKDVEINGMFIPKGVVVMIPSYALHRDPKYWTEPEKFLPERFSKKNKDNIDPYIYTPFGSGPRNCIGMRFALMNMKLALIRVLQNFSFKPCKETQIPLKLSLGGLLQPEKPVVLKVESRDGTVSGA

The structures appear in SMILES notation. Like-named read-outs stand apart in the source and are kept apart here.

For the compound `CCCCNc1ccc2c3c(cccc13)C(=O)N(CCCC)C2=O` [fluorol, 2-butyl-6-(butylamino)-1H-benzo[de]isoquinoline-1,3(2H)-dione], on T224A CYP3A4 [1] (T224A vs WT, spectrophotometric Kd), the “Decrease in affinities when the hydroxyl group in Thr224 is eliminated” value is 25–37%. Further, the Kd at 3 μM on T224A CYP3A4 [1] (human, ligand-free T224A mutant CYP3A4 protein in buffer, pH 7.4, ligand-free T224A CYP3A4, read-out: Kd, spectrophotometric, low-affinity site) came out at 6.6 ± 0.8 µM; on WT CYP3A4 (human, ligand-free WT CYP3A4 protein in buffer, pH 7.4, read-out: Kd, spectrophotometric, low-affinity site), 4.2 ± 0.5 µM. In addition, the “Percentage of the absorbance change due to binding of fluorol to the high-affinity site” value at T224A CYP3A4 [1] (ligand-free T224A CYP3A4) came out at 14%; on WT CYP3A4 (ligand-free WT CYP3A4), 28%. Further, the Kd at T224A CYP3A4 [1] (ligand-free T224A CYP3A4, read-out: Kd, spectrophotometric, high-affinity site) is 0.67 ± 0.12 µM; at WT CYP3A4 (ligand-free WT CYP3A4, 3 μM fluorol, 23 °C, 50 mM phosphate pH 7.4, 0.6 mg/mL β-cyclodextrin, read-out: Kd, spectrophotometric, high-affinity site), 0.5 ± 0.04 µM; on CYP3A4 (read-out: Kd, high-affinity site (peripheral area)), about 3 µM; on CYP3A4 (read-out: Kd, low-affinity area (catalytic cavity)), 10 µM. The “Difference in affinity between the two independent fluorol binding sites” value at WT CYP3A4 (WT and T224A CYP3A4, spectrophotometric Kd) is listed as 8–10 fold. Also, the “Decrease in the Soret band during first spectral phase, WT relative to T224A” value on WT CYP3A4 ([CYP3A4] < 0.5 μM) is given as ~ 3 fold. Further, the “Height of 385 nm peak formed during second phase, WT compared to T224A” value on WT CYP3A4 (higher in WT) is ~ 20%. Moreover, on T224A CYP3A4 [2], the “Efficiency of fluorol oxidation, mutant less efficient than WT” value is given as ~ 20%. The “Concentration range with linear dependence of emission intensity (no aggregation)” value in data set [3] was 100 to 4000 nM. In data set [4], the Aqueous solubility entry is “limited aqueous solubility”. In addition, the Hill coefficient at CYP3A4 is listed as 1.93.
